US4234546A, “Liquid/liquid extraction of nickel values” (Shell Oil Company, priority 1977, dated 1980)
Like-named read-outs stand apart in the source and are kept apart here. Blank lines part the entries; values can stand above or below the compound they belong to.

Excerpt: The extent to which nickel values in the aqueous solution are transferred into the extractant, expressed in terms of a "distribution coefficient", is also of importance. The distribution coefficient after t minutes' agitation is defined as
wherein "a" is as defined hereinbefore and "c" is the nickel content of the aqueous phase, expressed in mg Ni/l.
The temperature in the vessel was held constant by circulating water through the space between the outer and the inner walls of the vessel. The vessel was provided with an inlet tube, a sampling cock at the bottom, a six-bladed turbine stirrer with a distance between the ends of the opposite tips of 2.8 cm, and four baffles, connected to the wall of the vessel and extending to the central axis over a distance of 0.7 cm. The stirrer speed was 2000 revolutions per minute.
100 ml of the starting organic extractant was introduced into the cylindrical vessel, the blades of the stirrer were positioned at the surface of the organic solution, stirring was started, and 100 ml of the starting aqueous solution was poured into the vessel. […] The temperature of the batch extraction mixture was held at 50° C. When equilibrium was reached, stirring was discontinued, the two phases were allowed to separate and the concentrations of the nickel in the organic phase and in the aqueous phase were determined. […] Stirring was again started and continued until equilibrium was attained at the higher pH. The two phases were allowed to separate and the concentrations of the nickel in the organic phase and in the aqueous phase were again determined. The procedure was continued in this manner to obtain equilibrium distribution coefficient data at several pH values.

log D (logarithm of nickel value extraction distribution coefficient) (pH 1.6): 0.14
log D (logarithm of nickel value extraction distribution coefficient) (pH 2.08): 0.87
Compound: 1-(4-C10-14 -alkylphenyl)-1,2-nonanedione dioximes [Dioximes D]

log D (logarithm of nickel value extraction distribution coefficient) (pH 1.58): -0.70
log D (logarithm of nickel value extraction distribution coefficient) (pH 1.89): -0.22
log D (logarithm of nickel value extraction distribution coefficient) (pH 2.04): 0.18
log D (logarithm of nickel value extraction distribution coefficient) (pH 2.7): 1.19
Compound: CCCCCCCC(=NO)C(CCCCCCC)=NO [Dioxime A, 8,9-hexadecanedione dioxime, reference compound]

log D (logarithm of nickel value extraction distribution coefficient) (pH 1.42): -0.30
log D (logarithm of nickel value extraction distribution coefficient) (pH 1.66): 0.10
log D (logarithm of nickel value extraction distribution coefficient) (pH 2): 0.80
log D (logarithm of nickel value extraction distribution coefficient) (pH 2.55): 1.76
Compound: 1-(4-C10-14 -alkylphenyl)-1,2-propanedione dioximes [Dioximes C1]

log D (logarithm of nickel value extraction distribution coefficient) (pH 1.36): -0.38
log D (logarithm of nickel value extraction distribution coefficient) (pH 1.7): 0.12
log D (logarithm of nickel value extraction distribution coefficient) (pH 2.1): 0.82
log D (logarithm of nickel value extraction distribution coefficient) (pH 2.66): 1.84
Compound: 2-(4-C10-14 -alkylphenyl)-2-hydroxyiminoethanal oximes [Dioximes B]
